From publication PMC3961306, “Comparison of the Cancer Gene Targeting and Biochemical Selectivities of All Targeted Kinase Inhibitors Approved for Clinical Use” (PLoS ONE, 2014)

Experiments:
Assay in all cases: Kinase profiling in a biochemical assay panel (mobility shift assays and ELISA), %-inhibition at 1 μM; selectivity entropy
[1] = target: T1, panel of more than 300 wild-type and mutant kinases (313 kinase panel) (Homo sapiens, UniProt O43781)
T1 sequence (O43781 1-588): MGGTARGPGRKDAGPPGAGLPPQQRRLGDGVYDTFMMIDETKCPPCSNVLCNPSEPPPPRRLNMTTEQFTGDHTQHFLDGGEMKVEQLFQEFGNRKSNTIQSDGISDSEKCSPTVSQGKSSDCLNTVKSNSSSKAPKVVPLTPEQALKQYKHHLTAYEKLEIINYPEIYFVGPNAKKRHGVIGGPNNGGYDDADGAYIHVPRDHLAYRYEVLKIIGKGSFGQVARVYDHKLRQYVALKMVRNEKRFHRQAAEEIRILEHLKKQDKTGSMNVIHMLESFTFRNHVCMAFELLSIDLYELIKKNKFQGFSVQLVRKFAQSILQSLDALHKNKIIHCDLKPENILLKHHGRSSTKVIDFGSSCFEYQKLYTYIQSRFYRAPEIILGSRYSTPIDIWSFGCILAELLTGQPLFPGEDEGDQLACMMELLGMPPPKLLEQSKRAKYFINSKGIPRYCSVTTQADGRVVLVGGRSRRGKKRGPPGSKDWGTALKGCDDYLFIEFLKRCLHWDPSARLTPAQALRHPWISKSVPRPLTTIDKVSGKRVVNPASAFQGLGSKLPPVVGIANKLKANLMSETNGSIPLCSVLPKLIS

[2] = target: panel of more than 300 wild-type and mutant kinases (313 kinase panel) (Homo sapiens, UniProt P07949, G691S)
[3] = target: T2, panel of more than 300 wild-type and mutant kinases (313 kinase panel) (Homo sapiens, UniProt Q16566)
T2 sequence (Q16566 1-473): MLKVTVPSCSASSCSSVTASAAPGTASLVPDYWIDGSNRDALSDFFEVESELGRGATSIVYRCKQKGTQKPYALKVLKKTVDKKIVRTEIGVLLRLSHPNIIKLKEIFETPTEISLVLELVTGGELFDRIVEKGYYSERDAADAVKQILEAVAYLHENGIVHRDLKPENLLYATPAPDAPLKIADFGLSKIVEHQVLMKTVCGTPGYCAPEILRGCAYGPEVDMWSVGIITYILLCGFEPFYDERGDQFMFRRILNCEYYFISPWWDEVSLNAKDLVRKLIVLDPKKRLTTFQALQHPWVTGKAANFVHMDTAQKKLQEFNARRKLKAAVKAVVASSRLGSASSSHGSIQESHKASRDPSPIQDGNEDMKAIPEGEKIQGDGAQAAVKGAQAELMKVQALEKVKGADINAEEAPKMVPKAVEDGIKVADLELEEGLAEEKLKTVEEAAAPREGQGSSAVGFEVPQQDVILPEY

[4] = target: T3, panel of more than 300 wild-type and mutant kinases (313 kinase panel) (Homo sapiens, UniProt Q14164)
T3 sequence (Q14164 1-716): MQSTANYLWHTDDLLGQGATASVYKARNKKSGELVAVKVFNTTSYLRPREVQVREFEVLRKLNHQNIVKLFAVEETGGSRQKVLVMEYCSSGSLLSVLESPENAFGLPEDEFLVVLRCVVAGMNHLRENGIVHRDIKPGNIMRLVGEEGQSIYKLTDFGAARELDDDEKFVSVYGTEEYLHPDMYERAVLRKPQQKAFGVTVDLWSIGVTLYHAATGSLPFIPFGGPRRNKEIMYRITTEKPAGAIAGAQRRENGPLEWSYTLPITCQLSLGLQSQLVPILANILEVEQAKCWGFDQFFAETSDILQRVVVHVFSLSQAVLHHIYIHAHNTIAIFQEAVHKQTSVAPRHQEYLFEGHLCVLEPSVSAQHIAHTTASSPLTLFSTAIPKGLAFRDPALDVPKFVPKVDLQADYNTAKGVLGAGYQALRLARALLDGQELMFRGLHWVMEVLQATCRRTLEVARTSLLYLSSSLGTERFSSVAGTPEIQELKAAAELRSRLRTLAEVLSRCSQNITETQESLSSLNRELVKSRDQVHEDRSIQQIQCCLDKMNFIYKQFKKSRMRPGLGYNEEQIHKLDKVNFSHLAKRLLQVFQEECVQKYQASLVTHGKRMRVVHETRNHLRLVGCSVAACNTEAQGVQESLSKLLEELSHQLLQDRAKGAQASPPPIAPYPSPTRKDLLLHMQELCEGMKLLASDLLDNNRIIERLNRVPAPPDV

[5] = target: panel of more than 300 wild-type and mutant kinases (313 kinase panel) (Homo sapiens, UniProt Q05397); conditions: kinase FAK; compound at 1 μM
[6] = target: panel of more than 300 wild-type and mutant kinases (313 kinase panel) (Homo sapiens, UniProt Q9UM73, F1174L)
[7] = kinase ALK(F1174L), 1 μM compound

SMILES | %-inhibition of DYRK3 ([1]; kinase DYRK3, compound at 1 μM) | %-inhibition of RET(G691S) ([2]; kinase RET(G691S), 1 μM) | %-inhibition, CaMK4 ([3]; kinase CaMK4, 1 μM compound) | %-inhibition of IKKε ([4]; kinase IKKε, compound at 1 μM) | %-inhibition of FAK [5] | %-inhibition, ALK(F1174L) [6, 7] | %-inhibition of RET(G691S) ([2]; 1 µM) | %-inhibition, CaMK4 ([3]; 1 µM) | %-inhibition, ALK(F1174L) ([6]; 1 µM) | %-inhibition of DYRK3 ([1]; 1 µM) | %-inhibition of IKKε ([4]; 1 µM)
CC(C)(C)c1nc(-c2cccc(NS(=O)(=O)c3c(F)cccc3F)c2F)c(-c2ccnc(N)n2)s1 [dabrafenib] | -5.68% | 53% | 78% | 15% | 13% | – | – | – | – | – | –
CCCS(=O)(=O)Nc1ccc(F)c(C(=O)c2c[nH]c3ncc(-c4ccc(Cl)cc4)cc23)c1F [vemurafenib] | 5% | 23% | -2.38% | -9% | -3.55% | -1.36% | – | – | – | – | –
CN(C)C/C=C/C(=O)Nc1cc2c(Nc3ccc(F)c(Cl)c3)ncnc2cc1O[C@H]1CCOC1 [afatinib] | 29% | – | – | – | – | – | – | – | – | – | –
C[C@@H](Oc1cc(-c2cnn(C3CCNCC3)c2)cnc1N)c1c(Cl)ccc(F)c1Cl [crizotinib] | 14% | – | – | 7.49% | 90% | – | – | – | – | – | –
Cc1ccc(C(=O)Nc2ccc(CN3CCN(C)CC3)c(C(F)(F)F)c2)cc1C#Cc1cnc2cccnn12 [ponatinib] | 50% | 102% | -1.51% | -9% | – | 5% | – | – | – | – | –
O=S(=O)(c1cccc2cnccc12)N1CCCNCC1 [fasudil] | 26% | -0.0546% | -5.66% | -1.77% | -4% | -4% | – | – | – | – | –
COc1cc(Nc2c(C#N)cnc3cc(OCCCN4CCN(C)CC4)c(OC)cc23)c(Cl)cc1Cl [bosutinib] | 12% | 94% | – | 4.39% | 22% | 71% | – | – | – | – | –
CO[C@H]1C[C@@H]2CC[C@@H](C)[C@@](O)(O2)C(=O)C(=O)N2CCCC[C@H]2C(=O)O[C@H]([C@H](C)C[C@@H]2CC[C@@H](OCCO)[C@H](OC)C2)CC(=O)[C@H](C)/C=C(\C)[C@@H](O)[C@@H](OC)C(=O)[C@H](C)C[C@H](C)/C=C/C=C/C=C/1C [everolimus] | -11% | -4.43% | -11% | -10% | -4% | -3.68% | – | – | – | – | –
Cc1ccc(Nc2nccc(N(C)c3ccc4c(C)n(C)nc4c3)n2)cc1S(N)(=O)=O [pazopanib] | -4.54% | – | -1.08% | 0% | 46% | 26% | – | – | – | – | –
CNC(=O)c1cc(Oc2ccc(NC(=O)Nc3ccc(Cl)c(C(F)(F)F)c3)c(F)c2)ccn1 [regorafenib] | 15% | 103% | -0.0486% | -7% | -1.14% | -7.49% | – | – | – | – | –
CC(=O)Nc1cccc(-n2c(=O)n(C3CC3)c(=O)c3c(Nc4ccc(I)cc4F)n(C)c(=O)c(C)c32)c1 [trametinib] | -10% | -1.48% | -5.45% | -3.63% | -2.41% | -7% | – | – | – | – | –
CCN(CC)CCNC(=O)c1c(C)[nH]c(/C=C2\C(=O)Nc3ccc(F)cc32)c1C [sunitinib] | – | – | 26% | – | – | – | – | – | – | – | –
CO[C@H]1C[C@@H]2CC[C@@H](C)[C@@](O)(O2)C(=O)C(=O)N2CCCC[C@H]2C(=O)O[C@H]([C@H](C)C[C@@H]2CC[C@@H](OC(=O)C(C)(CO)CO)[C@H](OC)C2)CC(=O)[C@H](C)/C=C(\C)[C@@H](O)[C@@H](OC)C(=O)[C@H](C)C[C@H](C)/C=C/C=C/C=C/1C [temsirolimus] | -0.454% | -6% | -9% | -11% | -5.48% | -6% | – | – | – | – | –
CS(=O)(=O)CCNCc1ccc(-c2ccc3ncnc(Nc4ccc(OCc5cccc(F)c5)c(Cl)c4)c3c2)o1 [lapatinib] | -2.24% | – | – | -5% | 10% | 1.61% | -3% | -4.44% | – | – | –
COc1cc2c(Nc3ccc(Br)cc3F)ncnc2cc1OCC1CCN(C)CC1 [vandetanib] | -5% | – | -3% | -6.49% | -2.11% | – | – | – | – | – | –
COc1cc2nccc(Oc3ccc(NC(=O)C4(C(=O)Nc5ccc(F)cc5)CC4)cc3)c2cc1OC [cabozantinib] | 4% | – | -10% | -7.58% | 10% | 6.54% | – | – | – | – | –
N#CC[C@H](C1CCCC1)n1cc(-c2ncnc3[nH]ccc23)cn1 [ruxolitinib] | -9% | – | -2.58% | 15% | -1% | – | – | – | – | – | –
Cc1cn(-c2cc(NC(=O)c3ccc(C)c(Nc4nccc(-c5cccnc5)n4)c3)cc(C(F)(F)F)c2)cn1 [nilotinib] | -1.09% | – | 3.54% | -2.79% | 3.25% | -45% | 13% | – | – | – | –
C#Cc1cccc(Nc2ncnc3cc(OCCOC)c(OCCOC)cc23)c1 [erlotinib] | – | – | – | – | – | – | 73% | 2% | 41% | 22% | 5%
